Laboratory results reported in patent publication US8258134B2, “Pyridazinone glucokinase activators” (Hoffmann-La Roche Inc., priority 2008, dated 2012).

Target: T1, Recombinant human liver GK1 (GST-GK) (Homo sapiens, UniProt P35557)
T1 construct: made in house; host or cells: E. coli
T1 sequence (P35557 1-466 isoform P35557-2): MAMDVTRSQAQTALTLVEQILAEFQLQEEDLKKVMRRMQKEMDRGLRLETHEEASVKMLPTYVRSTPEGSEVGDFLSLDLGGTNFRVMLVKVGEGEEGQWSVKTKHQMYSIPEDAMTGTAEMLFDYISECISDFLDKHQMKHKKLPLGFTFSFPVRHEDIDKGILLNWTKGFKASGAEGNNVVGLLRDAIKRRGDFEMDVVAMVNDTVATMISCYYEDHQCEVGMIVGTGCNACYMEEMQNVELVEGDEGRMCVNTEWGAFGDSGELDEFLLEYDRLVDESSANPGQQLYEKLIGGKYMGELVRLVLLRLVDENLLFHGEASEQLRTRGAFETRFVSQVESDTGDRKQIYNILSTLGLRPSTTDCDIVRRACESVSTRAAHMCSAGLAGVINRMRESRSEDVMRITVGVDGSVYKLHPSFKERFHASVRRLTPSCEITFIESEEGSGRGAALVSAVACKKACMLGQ
Experiment: Glucokinase in vitro assay (G6PDH-coupled NADH generation, OD340)
Assay type: biochemical
Conditions: 5 mM D-glucose, 30° C., pH 7.1, 10% DMSO
Summary of the method: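 GST-tagged recombinant GK1 expressed in E. coli, run at 30° C, pH 7.1 Hepes with 5 mM D-glucose, 1 mM ATP and 1.8 mM NAD, G6PDH-coupled. Compounds were in 10% DMSO final, with a 10 min pre-incubation before enzyme addition. OD340/min rate measured; SC1.5 is the activator concentration giving a 50% increase in activity.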

SC1.5 average (concentration of activator that produced a 50% increase in the activity of GK) [µM]	SMILES
0.042	Cc1ccc(F)c(Oc2cnn(C(CC3CCCC3)C(=O)Nc3ccn(C[C@@H](O)CO)n3)c(=O)c2)c1F (stereo partly drawn) [Example 107, 3-Cyclopentyl-2-[4-(2,6-difluoro-3-methyl-phenoxy)-6-oxo-6H-pyridazin-1-yl]-N-[1-((R)-2,3-dihydroxy-propyl)-1H-pyrazol-3-yl]-propionamide]
0.521	O=C(Nc1ccn(C[C@@H](O)CO)n1)C(Cc1c(F)cccc1F)n1ncc(Oc2c(F)cccc2F)cc1=O (stereo partly drawn) [Example 108, 2-[4-(2,6-Difluoro-phenoxy)-6-oxo-6H-pyridazin-1-yl]-3-(2,6-difluoro-phenyl)-N-[1-((R)-2,3-dihydroxy-propyl)-1H-pyrazol-3-yl]-propionamide]
0.293	CC(C)CC(C(=O)Nc1ccn(C[C@@H](O)CO)n1)n1ncc(Oc2cccc3ccccc23)cc1=O (stereo partly drawn) [Example 109, 4-Methyl-2-[4-(naphthalen-1-yloxy)-6-oxo-6H-pyridazin-1-yl]-pentanoic acid [1-((R)-2,3-dihydroxy-propyl)-1H-pyrazol-3-yl]-amide]
0.29	CC(C)CC(C(=O)Nc1ccn(C[C@@H](O)CO)n1)n1ncc(Oc2cccc3c2CCCC3)cc1=O (stereo partly drawn) [Example 110, 4-Methyl-2-[6-oxo-4-(5,6,7,8-tetrahydro-naphthalen-1-yloxy)-6H-pyridazin-1-yl]-pentanoic acid [1-((R)-2,3-dihydroxy-propyl)-1H-pyrazol-3-yl]-amide]
0.554	CC(C)CC(C(=O)Nc1ccn(C[C@@H](O)CO)n1)n1ncc(Oc2cccc3[nH]ccc23)cc1=O (stereo partly drawn) [Example 111, 2-[4-(1H-Indol-4-yloxy)-6-oxo-6H-pyridazin-1-yl]-4-methyl-pentanoic acid [1-((R)-2,3-dihydroxy-propyl)-1H-pyrazol-3-yl]-amide]
2.606	CC(C)CC(C(=O)Nc1ccn(C[C@@H](O)CO)n1)n1ncc(-n2ccc3c(O)cccc32)cc1=O (stereo partly drawn) [Example 112, 2-[4-(4-Hydroxy-indol-1-yl)-6-oxo-6H-pyridazin-1-yl]-4-methyl-pentanoic acid [1-((R)-2,3-dihydroxy-propyl)-1H-pyrazol-3-yl]-amide]
2.308	CC(C)CC(C(=O)Nc1ccn(C)n1)n1ncc(Oc2cccc3c2ccn3C[C@@H](O)CO)cc1=O (stereo partly drawn) [Example 113, 2-{4-[1-((R)-2,3-Dihydroxy-propyl)-1H-indol-4-yloxy]-6-oxo-6H-pyridazin-1-yl}-4-methyl-pentanoic acid (1-methyl-1H-pyrazol-3-yl)-amide]
1.656	O=C(Nc1ccn(C[C@@H](O)CO)n1)C(CC1CCCC1)n1ncc(OCCc2ccccc2Cl)cc1=O (stereo partly drawn) [Example 114, 2-{4-[2-(2-Chloro-phenyl)-ethoxy]-6-oxo-6H-pyridazin-1-yl}-3-cyclopentyl-N-[1-((R)-2,3-dihydroxy-propyl)-1H-pyrazol-3-yl]-propionamide]
0.376	O=C(Nc1ccn(C[C@@H](O)CO)n1)C(CC1CCCC1)n1ncc(Oc2nccc(C(F)(F)F)n2)cc1=O (stereo partly drawn) [Example 115, 3-Cyclopentyl-N-[1-((R)-2,3-dihydroxy-propyl)-1H-pyrazol-3-yl]-2-[6-oxo-4-(4-trifluoromethyl-pyrimidin-2-yloxy)-6H-pyridazin-1-yl]-propionamide]
0.543	COc1ccc(Oc2cnn(C(CC3CCCCC3)C(=O)Nc3ccn(CC(C)(C)O)n3)c(=O)c2)c(F)c1 (stereo not shown) [Example 116, 3-Cyclohexyl-2-[4-(2-fluoro-4-methoxy-phenoxy)-6-oxo-6H-pyridazin-1-yl]-N-[1-(2-hydroxy-2-methyl-propyl)-1H-pyrazol-3-yl]-propionamide]
